These results are taken from PubChem BioAssay AID1996.

The structures appear in SMILES notation. In brackets after ≈: the same amount, converted by molar mass.

The conditions of the data set: buffer; pH 7.4; 200.0 µM.
For orientation: solubility (kinetic) means the concentration staying in solution when a stock, usually in DMSO, is diluted into the medium. `O=C(NC1CCCC1)C1CCCN(C(=O)Nc2ccccc2)C1` (stereo not drawn) gave a kinetic solubility of 43.9 µg/mL (≈ 139 µM). Consider `COc1ccc(/C(C)=N/NC2=NCCN2)cc1Cl`, for which the solubility (kinetic) was more than 40 µg/mL. In the case of `CSc1ncc(Cl)c(C(=O)Nc2ccccc2[N+](=O)[O-])n1` it was less than 0.2 µg/mL; in that of `N/C(=N\OC(=O)c1cccc2ccccc12)c1ccncc1`, 31.3 µg/mL (≈ 107 µM); in that of `Cl.Clc1cccc(CNCCCSc2ncccn2)c1`, more than 49.5 µg/mL. In the case of `CN(Cc1ccc(F)cc1)C(=O)CNC(=O)C1CCCCC1` it was more than 46 µg/mL; in that of `O=C1CNC(=S)N1CCc1ccc(O)c(O)c1`, 32.3 µg/mL (≈ 128 µM). Compound `O=C(CN1CCOCC1)Nc1ccc(Cl)cc1` yielded a kinetic solubility of more than 38.2 µg/mL. In the case of `CCOc1ccccc1CNS(=O)(=O)c1cnc[nH]1` it was more than 42.2 µg/mL; in that of `CCCCCCCOc1ccc(C2(C)NC(=O)NC2=O)cc1` (stereo not drawn), 9.3 µg/mL (≈ 30.6 µM); in that of `O=C(c1ccccc1)N1CCn2c1nc1ccccc12`, 9.2 µg/mL (≈ 34.9 µM). The compound `CC(Sc1nc2ccc(C(=O)c3ccccc3)cc2[nH]1)C(=O)O` (stereo not drawn) showed a kinetic solubility of more than 49 µg/mL.

`O=[N+]([O-])c1ccc(O)c(CN2CCCCCC2)c1` came in with a kinetic solubility of more than 37.5 µg/mL.

The compound `CC(=O)Nc1ccc(S(=O)(=O)NCCC(=O)NC(C)c2cccs2)cc1` (stereo not drawn) registered a kinetic solubility of more than 59.3 µg/mL.

The compound `Cc1cc(C)cc(N2CC(C(=O)Nc3cc(C)on3)CC2=O)c1` (stereo not drawn) had a kinetic solubility of 6.7 µg/mL (≈ 21.4 µM). Next, `CCOC(=O)C(Cc1ccccc1)C(=O)NCc1cccnc1` (stereo not drawn): more than 46.9 µg/mL.

For `CSc1nc2ncnc(N)c2[nH]1`, the kinetic solubility was more than 27.2 µg/mL. In the case of `O=C(NCCC(=O)N1CCN(c2ccccn2)CC1)c1ccc([N+](=O)[O-])cc1` it was more than 57.5 µg/mL; in that of `COc1ccccc1CCNC(C)CCc1ccc(O)cc1` (stereo not drawn), 33.2 µg/mL (≈ 111 µM).

For the compound `CCOC(=O)c1oc2ccccc2c1NC(=O)c1ccco1`, the kinetic solubility was found to be 1.5 µg/mL (≈ 5.01 µM). The compound `CCn1cnnc1SCC(=O)Nc1ccccc1C(=O)NC1CC1` displayed a kinetic solubility of more than 51.8 µg/mL. `CCOC(=O)N1CCN(Cc2nc(-c3cccs3)no2)CC1` gave a kinetic solubility of 44 µg/mL (≈ 136 µM).

`O=c1cc(C(F)(F)F)[nH]c2ccccc12` registered a solubility (kinetic) of more than 32 µg/mL. In the case of `Cc1ccc(S(=O)(=O)c2c(C)cc(C)nc2N2CCCC2)cc1` it was 1.2 µg/mL (≈ 3.63 µM). In the case of `O=[N+]([O-])c1ccc(S(=O)(=O)Nc2nc(-c3ccccc3)cs2)cc1` it was more than 54.2 µg/mL. Next, `Cc1nc2ccccc2c2oc(C(=O)N3CCC(C)CC3)cc12`: more than 46.3 µg/mL; `CCOC(=O)C1=C(O)C(=O)N(Cc2ccccc2)C1`: more than 39.2 µg/mL. `COc1ccc(C(CNS(=O)(=O)c2ccc(NC(C)=O)c(OC)c2)N2CCCCC2)cc1.Cl` (stereo not drawn) registered a solubility (kinetic) of more than 74.7 µg/mL. In the case of `COc1ccc(CCNC(=O)COC(=O)c2cc(Cl)nc(Cl)c2)cc1` it was 23.6 µg/mL (≈ 61.6 µM); in that of `CCOc1ccc(NC(=S)N2CCC(NC(=O)c3ccccc3)CC2)cc1`, 4.2 µg/mL (≈ 11 µM); in that of `O=C(O)C(c1ccccc1)N1C(=O)c2ccccc2C1=O` (stereo not drawn), 40.7 µg/mL (≈ 145 µM). In the case of `CN(C)c1cccc(C(=O)Nc2nc3ccccc3[nH]2)c1` it was 12.1 µg/mL (≈ 43.2 µM); in that of `O=C(CN1C(=O)C2CC=CCC2C1=O)Nc1nc(-c2ccc(F)c(F)c2)cs1` (stereo not drawn), 4.8 µg/mL (≈ 11.9 µM); in that of `CSc1cccc(NC(=O)CC2Oc3ccccc3NC2=O)c1` (stereo not drawn), 1.8 µg/mL (≈ 5.48 µM). In the case of `CCOc1ccc(/C=C/C(=O)N2CCOCC2)cc1OC` it was more than 43.7 µg/mL; in that of `CN1CCN(S(=O)(=O)c2ccc(N(C)Cc3c(F)cccc3Cl)nc2)CC1`, 5.4 µg/mL (≈ 13.1 µM); in that of `COc1cc(/C=C/[N+](=O)[O-])ccc1OC(=O)/C=C/c1ccc(F)cc1`, less than 0.7 µg/mL. `O=C(CSC(=S)N1CCCC1)c1ccccc1` registered a kinetic solubility of less than 0.6 µg/mL. `Cc1cc(=O)[nH]c(-c2ccccc2OC(F)(F)F)n1` displayed a kinetic solubility of more than 40.5 µg/mL.

Consider `Cn1cccc1C1CCCN1CC(=O)Nc1c(Cl)cc(Cl)cc1Cl` (stereo not drawn), for which the solubility (kinetic) came to 32.5 µg/mL (≈ 84 µM). As to `CC(=O)O.O=S(=O)(Cc1ccccc1)N1CCNCC1`, the solubility (kinetic) came out at 34.3 µg/mL. Next, `O=C(Cc1c[nH]c2ccccc12)N1CCN(c2ccccc2)CC1`: 3.9 µg/mL (≈ 12.2 µM); `CC(C)=CC(=O)OCC(=O)Nc1ccc(Cl)cc1`: 36.3 µg/mL (≈ 136 µM); `CC(C)(C)S(=O)(=O)c1cnc(N2CCCCC2)nc1N`: more than 44.8 µg/mL. Next, `O=C(NC1CCS(=O)(=O)C1)c1cc(-c2ccccc2)nc2ccccc12` (stereo not drawn): more than 55 µg/mL; `Cc1ccc(NC(=O)CN2CCN(Cc3ccccc3)CC2)cc1`: more than 48.5 µg/mL. Compound `COc1ccc(NC(=S)N2CCN(c3ccccc3)CC2)c(OC)c1` had a solubility (kinetic) of 2.6 µg/mL (≈ 7.27 µM).

Compound `CN1CCN(c2ccncc2S(=O)(=O)N2CCCCC2)CC1` yielded a solubility (kinetic) of more than 48.7 µg/mL. In the case of `Nc1nc2ccccc2n1Cc1ccc(Cl)c(Cl)c1` it was 33.1 µg/mL (≈ 113 µM). In the case of `Cl.O=C(Cc1ccccc1)NCCN1CCCC1` it was more than 40.3 µg/mL; in that of `COc1ccc(C(=O)CC(=O)Nc2ccc([N+](=O)[O-])cc2)cc1`, 2.6 µg/mL (≈ 8.27 µM). As for `CC(=O)c1ccc[n+](CC(=O)NC(C)c2ccccc2)c1.[Cl-]` (stereo not drawn), the solubility (kinetic) is more than 47.8 µg/mL. In the case of `CC(=NCCC1=CCCCC1)c1c(O)n(-c2ccccc2)c(=O)[nH]c1=O` it was 10 µg/mL (≈ 28.3 µM). Take `O=[N+]([O-])c1ccccc1S(=O)(=O)NCCSc1ccccc1`: the kinetic solubility turned out to be 16.5 µg/mL (≈ 48.8 µM). In the case of `CC(=O)NC(c1ccc(Cl)cc1Cl)c1ccc2cccnc2c1O` (stereo not drawn) it was 3 µg/mL (≈ 8.31 µM).

The compound `NS(=O)(=O)c1cccc(NC(=O)CN2C(=O)C(=O)N(Cc3ccccc3)C2=O)c1` showed a kinetic solubility of 60.5 µg/mL (≈ 145 µM). In the case of `CCCCCCC(=O)Nc1ccc(Br)cn1` it was 1.6 µg/mL (≈ 5.61 µM); in that of `COc1cc(SC)ccc1C(=O)NCCCn1ccnc1`, more than 45.8 µg/mL.

`CCC1Oc2ccccc2N(CC(=O)N2CCOCC2)C1=O` (stereo not drawn) had a kinetic solubility of more than 45.7 µg/mL. Next, `NC1=NC(=Nc2cccc(S(N)(=O)=O)c2)c2ccccc21`: more than 45.1 µg/mL. In the case of `C/C(=C\C(=O)Nc1cscc1C)C(=O)O` it was 28.2 µg/mL (≈ 125 µM). Next, `NS(=O)(=O)c1cccc(Nc2nc3ccccc3nc2NS(=O)(=O)c2ccc(Cl)cc2)c1`: 7.4 µg/mL (≈ 15.1 µM); `Cc1cc(Cl)c(OCCOCCN2CCNCC2)c(Cl)c1.O=C(O)C(=O)O`: 62.5 µg/mL; `CCCCC/C(=N/O)c1c(C)[nH]c2ccccc12`: 29.8 µg/mL (≈ 122 µM). In turn, `COc1ccc(NC(=O)c2scc(S(=O)(=O)C(C)C)c2N)cc1` returned a kinetic solubility of 45.5 µg/mL (≈ 128 µM). Next, `COC(=O)C1=C(C)NC(=O)NC1c1ccc2c(c1)OCO2` (stereo not drawn): 37.3 µg/mL (≈ 128 µM); `COc1ccc(CC(=O)OCN2C(=O)c3ccccc3C2=O)cc1OC`: more than 53.3 µg/mL. `COc1ccc(CCNS(=O)(=O)c2ccc3c(c2)CCCC3)cc1OC`: the kinetic solubility was 28.2 µg/mL (≈ 75.1 µM).

As for `Cc1ccc2oc(=O)n(CCOc3ccccc3)c2c1`, the kinetic solubility is 14.2 µg/mL (≈ 52.7 µM). In the case of `CC(C)Oc1ccc(C(=O)Nc2ccc([N+](=O)[O-])cc2)cc1` it was less than 0.3 µg/mL; in that of `CCCSc1nc2c(c(=O)[nH]c(=O)n2C)n1Cc1ccccc1`, 1.6 µg/mL (≈ 4.84 µM); in that of `C=CCN1CCN(C(=O)c2c(-c3ccccc3)noc2C)CC1`, more than 46.7 µg/mL. Take `O=C1NC(=O)C2(CCCCCCCCCCC2)N1`: the solubility (kinetic) came to 1.5 µg/mL (≈ 5.94 µM). Next, `Cc1cc(CNC(=O)Cc2ccccc2)c2ccccc2n1`: more than 43.6 µg/mL. Next, `CCCOC(=O)Cn1cnc2scc(-c3ccc(OC)cc3)c2c1=O`: 27.7 µg/mL (≈ 77.3 µM); `Cc1ccc(S(=O)(=O)N2CCCc3ccccc32)cc1C`: 2.3 µg/mL (≈ 7.63 µM). With `Cc1ccc(NC(=O)CCOc2ccccc2C)cc1F`, the kinetic solubility was determined as 2.5 µg/mL (≈ 8.7 µM). Next, `O=C(c1cccc(NS(=O)(=O)c2cccc(F)c2)c1)N1CCCC1`: 51 µg/mL (≈ 146 µM).

`CC(=O)c1ccc(Sc2ccccn2)c([N+](=O)[O-])c1` gave a kinetic solubility of 38 µg/mL (≈ 139 µM). Next, `CCCCNC(=O)N(C)c1nc2ccccc2s1`: 28.8 µg/mL (≈ 109 µM); `Cc1ccc([N+](=O)[O-])cc1NC(=O)C1CCCC1`: 9.4 µg/mL (≈ 37.9 µM); `CC(=O)c1cccc(S(=O)(=O)Nc2c(C)nn(C)c2C)c1`: more than 46.1 µg/mL. In the case of `COc1cc(C(=S)N2CCCC2)ccc1OCc1ccccc1` it was 1.5 µg/mL (≈ 4.58 µM). In the case of `Cc1ccc(-n2c(C)cc(C(=O)CN3CCOCC3)c2C)cc1C` it was more than 49 µg/mL.

Regarding `COC(=O)c1cc2c(=O)c3ccccc3oc2nc1C`, the solubility (kinetic) is 5.4 µg/mL (≈ 20.1 µM). Next, `Cc1cc(NC(=O)c2c(C)noc2C)no1`: more than 33.2 µg/mL; `CCCN1C(=O)/C(=C/c2nc3ccccc3c(=O)[nH]2)c2cc(C)ccc21`: less than 0.2 µg/mL; `O=C(NCC1CCCO1)c1cc(-c2ccc(F)cc2)no1` (stereo not drawn): more than 43.5 µg/mL. In the case of `CC(=O)Nc1nc(-c2ccccc2)cc(-c2ccco2)c1C#N` it was 2 µg/mL (≈ 6.59 µM); in that of `O=C(CNC(=O)c1ccc(Cl)cc1)c1ccc(Cl)cc1`, 9 µg/mL (≈ 29.2 µM); in that of `Cc1ccc(S(=O)(=O)N(C)c2ccc(OC(=O)COc3ccccc3)cc2)cc1`, 18.7 µg/mL (≈ 45.4 µM). For `CCCC(C)NC(=O)c1sc2nc3n(c(=O)c2c1C)CCC3` (stereo not drawn), the solubility (kinetic) is more than 47.9 µg/mL. In the case of `O=C(O)c1ncc(Cl)c(Cl)c1Cl` it was 33.1 µg/mL (≈ 146 µM); in that of `c1ccc(-c2csc(-c3ccncc3)n2)cc1`, 24.8 µg/mL (≈ 104 µM); in that of `CN1c2ccccc2C(=O)NC1c1ccc(Cl)cc1` (stereo not drawn), more than 40.9 µg/mL. In the case of `CCC(=O)N1CCCc2ccccc21` it was 22.4 µg/mL (≈ 118 µM); in that of `O=C(COC(=O)c1ccccc1O)NCc1ccc2c(c1)OCO2`, 5.7 µg/mL (≈ 17.3 µM). Next, `COc1ccc(NC(=O)NCc2cccnc2)c(OC)c1`: more than 43.1 µg/mL; `O=C(COc1ccccc1F)NC12CC3CC(CC(C3)C1)C2`: 6.6 µg/mL (≈ 21.8 µM). The compound `COc1ccc(C2c3c(nc[nH]c3=O)Oc3nc[nH]c(=O)c32)cc1` showed a solubility (kinetic) of more than 48.6 µg/mL. In the case of `CCCC(=O)OCC(=O)NC1CCCc2ccccc21` (stereo not drawn) it was more than 41.3 µg/mL.

`Cc1ccccc1C(=O)OCC(=O)N(C)c1ccccc1` had a kinetic solubility of more than 42.5 µg/mL. Next, `CC(C)(CNCc1ccccc1)NS(=O)(=O)c1ccccc1`: more than 47.8 µg/mL.
